How the values were obtained:
[1] = system: GR33 polypeptide SEQ ID No. 2; experiment: Pharmacological and electrophysiological study of Xenopus eggs microinjected with GR33 mRNA (induced current under applied potential); assay type: cell-based, rat; conditions: for effect on response induced by NMDA (200 μM): antagonist applied (200 μM) simultaneously with NMDA; for effect of competitive antagonist on responses to NMDA: concentration not given
Description: The cDNA fragment isolated in Example 2 was transcribed into mRNA and microinjected into Xenopus eggs. The microinjected eggs thereby obtained were then tested for their capacity to bind certain labelled NMDA receptor ligands, or for their behaviour with respect to modulators of NMDA receptors.
The plasmid containing the 1.7-kb cDNA coding for the GR33 polypeptide SEQ ID No. 2 was linearized in the presence of the enzyme SmaI, and then subjected to a transcription step in the presence of phage T7 RNA polymerase. Transcription was performed using the Stratagene Kit according to the manufacturer's recommendations.
The synthetic RNA obtained above, dissolved in sterile water, was used (5 ng) for injection into mature Xenopus eggs (stages V and VI) in a volume of 50 nl. The eggs were then maintained for 3 days at 19° C. in multi well plates in a Barth medium supplemented with antibiotics (Miledi and Sumikawa, Biomed. Res. 3 (1982) 390).
The eggs thereby obtained were then tested for the presence of functional NMDA receptors at their surface. For this purpose, the eggs were transferred to modified OR-2 medium lacking magnesium, of composition: 88 mM NaCl, 2.5 mM KCl, 1 mM CaCl2, 10 mM HEPES buffer, pH 7.4 adjusted with sodium hydroxide. The different drugs (ligands or modulators) were applied by perfusion (10 ml/min) for 10-30 seconds under an applied potential difference of -80 or -90 mV.

[2] = system: known NMDA receptors; conditions: cited from earlier work
[3] = system: GR33 polypeptide SEQ ID No. 2; experiment: Pharmacological and electrophysiological study of Xenopus eggs microinjected with GR33 mRNA (induced current under applied potential); assay type: cell-based, rat

N[C@H](CCCP(=O)(O)O)C(=O)O [AP5, D-2-amino-5-phosphonovaleric acid]
effect on response induced by NMDA (200 μM) [1]: abolished | effect of competitive antagonist on responses to NMDA [1]: reduced

N[C@H](CCCCCP(=O)(O)O)C(=O)O [AP7, D-2-amino-7-phosphonoheptanoic acid]
effect on response induced by NMDA (200 μM) [1]: abolished | effect of competitive antagonist on responses to NMDA [1]: reduced

CN[C@H](CC(=O)O)C(=O)O [NMDA, N-methyl-D-aspartate]
EC50 ([1]; GR33 expressed in Xenopus eggs, read-out: NMDA concentration giving 50% of the maximum response (ED50)): ~10 µM

[Ca+2] [calcium]
effect on activity of known NMDA receptors [2]: stimulates | effect of calcium on GR33 activity [1]: inhibitory effect | effect on response induced by NMDA (200 μM) ([3]; external calcium concentration increased to 2.5 mM): decreased

N[C@@H](CCC(=O)O)C(=O)O [glutamate, Glutamic acid]
strength of response among excitatory amino acids tested (glutamate, kainate, quisqualate, homocysteate) [1]: strongest responses | induction of inward current ([1]; glutamate 0.1-1 mM, perfusion 10-30 s, -80 or -90 mV): induces an inward current

C=C(C)[C@H]1CN[C@H](C(=O)O)[C@H]1CC(=O)O [kainate]
induction of inward current ([1]; kainate): little or no effect

[Mg+2] [magnesium]
effect on activity of known NMDA receptors [2]: completely inhibits | inhibitory effect of magnesium on GR33 activity [1]: 30-70% | effect on response induced by NMDA (200 μM) ([3]; magnesium 200 μM added to the medium): decreased

N[C@@H](Cn1oc(=O)[nH]c1=O)C(=O)O [quisqualate]
induction of inward current ([1]; quisqualate 50 μM): little or no effect

Source: patent US5648259A, “Polypeptides having NMDA receptor activity, nucleic acids encoding those polypeptides and applications” (priority 1992, dated 1997)
